Laboratory results reported in patent publication US20240148723A1, “MYCOBACTERIUM TUBERCULOSIS COMPOSITIONS AND METHODS” (priority 2021, published 2024).
In brackets after ≈: the same amount, converted by molar mass.

Tested on: M. tuberculosis
Type: cell-based, Mycobacterium tuberculosis
Conditions: pH 6.8

Compound | MIC in the media 7H9 [µg/mL] | MIC in the media L-Ala [µg/mL] | MIC in the media SBA [µg/mL] | MIC in the media SLac [µg/mL]
c1ccc(Sc2ncnc3ccccc23)cc1 [compound 51331] | ≥ 23.83 | 11.92 (≈ 50 µM) | 11.92 (≈ 50 µM) | 2.98 (≈ 12.5 µM)
Oc1ccc(Cl)cc1Sc1cc(Cl)ccc1O [compound 55636] | ≥ 114.88 | 1.80 (≈ 6.27 µM) | 0.92 (≈ 3.2 µM) | 0.92 (≈ 3.2 µM)
COC12C(COC(N)=O)C3=C(C(=O)C(C)=C(N)C3=O)N1CC1C2N1C (stereo not shown) [compound 56410] | ≥ 0.28 | 0.28 (≈ 0.804 µM) | 0.28 (≈ 0.804 µM) | 0.56 (≈ 1.61 µM)
COc1ccc(C(=O)c2ccccc2O)c(O)c1 [compound 56769] | ≥ 97.70 | 24.42 (≈ 100 µM) | 24.42 (≈ 100 µM) | 0.76 (≈ 3.11 µM)
O=[N+]([O-])c1cc([N+](=O)[O-])c2cccnc2c1O [compound 57103] | ≥ 23.52 | 0.75 (≈ 3.19 µM) | 0.75 (≈ 3.19 µM) | 0.75 (≈ 3.19 µM)
COc1ccc(C2CC(=O)c3c(O)cc(O)cc3O2)cc1O (stereo not shown) [compound 57654] | ≥ 120.91 | 7.56 (≈ 25 µM) | 7.56 (≈ 25 µM) | 1.89 (≈ 6.25 µM)
O=c1[nH]c(=S)[nH]cc1Oc1ccc(Cl)cc1Cl [compound 73753] | ≥ 115.66 | 14.46 (≈ 50 µM) | 14.46 (≈ 50 µM) | 1.81 (≈ 6.26 µM)
CC[C@@H](O)C[C@H]1CCC[C@@]2(C[C@@H]3OC(=O)/C=C/[C@@](C)(O)[C@@H](O)[C@H](C)[C@@H](O)[C@H](OC4CCC(N(C)C)C(C)O4)[C@@H](O)[C@](C)(O)CCCCC/C=C/[C@@H]4CC(C)(C)O[C@@]4(O)C[C@H](O2)[C@H]3C)O1 (stereo partly shown) [compound 76627] | ≥ 22.81 | 5.7 (≈ 6.25 µM) | 11.4 (≈ 12.5 µM) | 5.7 (≈ 6.25 µM)
CCOC(CNCc1cc(C)c2[nH]c3ccccc3c2c1C)OCC [compound 79486] | ≥ 17.03 | 8.51 (≈ 25 µM) | 8.51 (≈ 25 µM) | 2.13 (≈ 6.26 µM)
Cc1ccc(NC(c2ccccc2)c2ccc3cccnc3c2O)cc1 (stereo not shown) [compound 84093] | ≥ 136.16 | 17.02 (≈ 50 µM) | 2.13 (≈ 6.26 µM) | 2.13 (≈ 6.26 µM)
CCCCc1oc2ccccc2c1C(=O)c1cc(I)c(OCCN(CC)CC)c(I)c1.Cl [compound 85442] | ≥ 8.52 | 4.26 | 2.18 | 1.09
OC(COc1ccc(Cl)cc1)CN1CCN(c2cccc(Cl)c2)CC1 (stereo not shown) [compound 91340] | ≥ 38.13 | 4.77 (≈ 12.5 µM) | 9.53 (≈ 25 µM) | 4.77 (≈ 12.5 µM)
Sc1nc2cc(-c3ccccc3)ccc2o1 [compound 93817] | ≥ 22.73 | 1.42 (≈ 6.25 µM) | 0.73 (≈ 3.21 µM) | 0.73 (≈ 3.21 µM)
Nc1ccc(N=Nc2ccc(O)cc2)c(N)n1 [compound 108235] | ≥ 22.92 | 11.46 (≈ 50 µM) | 11.46 (≈ 50 µM) | 5.73 (≈ 25 µM)
CCC(C)c1occ2c(O)c(C(=O)O)c(=O)cc-2c1C (stereo not shown) [compound 114344] | ≥ 110.51 | 27.63 (≈ 100 µM) | 6.91 (≈ 25 µM) | 1.73 (≈ 6.26 µM)
C1C2CC3C1C3/C2=N\N=C1/C2CC3C(C2)C13 [compound 122987] | ≥ 88.52 | 1.38 (≈ 6.5 µM) | 11.06 (≈ 52.1 µM) | 5.53 (≈ 26 µM)
COc1ccc(-c2coc3cc(O)cc(O)c3c2=O)cc1 [compound 123538] | ≥ 113.70 | 7.11 (≈ 25 µM) | 7.11 (≈ 25 µM) | 0.45 (≈ 1.58 µM)
NN=C1C(Cl)=C(Cl)C(Cl)=C1Cl [compound 126405] | ≥ 23.19 | 5.80 (≈ 25 µM) | 5.80 (≈ 25 µM) | 5.80 (≈ 25 µM)
Cc1ccc2ccc(C#N)cc2c1O [compound 128068] | ≥ 18.32 | 9.16 (≈ 50 µM) | 9.16 (≈ 50 µM) | 2.29 (≈ 12.5 µM)
CCCCOC(=O)c1ccc(N)cc1 [compound 128464] | ≥ 800 | 0.06 (≈ 0.31 µM) | 0.06 (≈ 0.31 µM) | 0.06 (≈ 0.31 µM)

Compound | MIC in the media 7H9 [µg/mL] | MIC in the media L-Ala [µg/mL] | MIC in the media SBA [µg/mL] | MIC in the media SLac [µg/mL]
COC1C=COC2(C)Oc3c(C)c(O)c4c(O)c(cc(O)c4c3C2=O)NC(=O)C(C)=CC=CC(C)C(O)C(C)C(O)C(C)C(OC(C)=O)C1C (stereo not shown) [compound 133100] | ≥ 0.56 | 0.56 (≈ 0.803 µM) | 0.56 (≈ 0.803 µM) | 0.56 (≈ 0.803 µM)
CSc1nc(=O)[nH]nc1Sc1ccccc1 [compound 134058] | ≥ 25.13 | 6.28 (≈ 25 µM) | 3.14 (≈ 12.5 µM) | 3.14 (≈ 12.5 µM)
Cc1ccc(C)c(N2CCN(c3ccncc3N)CC2)c1 [compound 147866] | ≥ 14.12 | 14.12 (≈ 50 µM) | 7.06 (≈ 25 µM) | 1.77 (≈ 6.27 µM)
CC1(C)CCSC(C=Cc2ccccc2)=N1 [compound 150954] | ≥ 11.57 | 5.78 (≈ 25 µM) | 2.89 (≈ 12.5 µM) | 2.89 (≈ 12.5 µM)
O=[N+]([O-])/C=C/c1cc2ccccc2[nH]1 [compound 150982] | ≥ 18.82 | 9.41 (≈ 50 µM) | 4.70 (≈ 25 µM) | 2.35 (≈ 12.5 µM)
CCOc1ccc(N=Nc2ccc(N)cc2N)cc1 [compound 190374] | ≥ 6.41 | 3.20 (≈ 12.5 µM) | 6.41 (≈ 25 µM) | 3.20 (≈ 12.5 µM)
Cc1ccc([S+]([O-])c2ccc([N+](=O)[O-])c3nonc23)cc1 (stereo not shown) [compound 228150] | ≥ 30.33 | 7.58 (≈ 25 µM) | 3.79 (≈ 12.5 µM) | 3.79 (≈ 12.5 µM)
O=[N+]([O-])c1ccc(Sc2cccc[n+]2[O-])c2nonc12 [compound 228155] | ≥ 0.93 | 0.93 (≈ 3.2 µM) | 0.93 (≈ 3.2 µM) | 0.93 (≈ 3.2 µM)
Cn1ccc(=Nc2ccc(NC(=O)c3ccc(N=c4ccn(C)c5ccc([N+](=O)[O-])cc45)cc3)cc2)cc1 [compound 260594] | ≥ 0.81 | 0.81 (≈ 1.61 µM) | 1.61 (≈ 3.19 µM) | 0.40 (≈ 0.793 µM)
CSc1ccc2c(c1)C(N1CCN(C)CC1)Cc1ccccc1S2.O=C(O)/C=C\C(=O)O (stereo not shown) [compound 281816] | ≥ 11.82 | 2.95 | 2.95 | 2.95
O=C1c2cccc3cc([N+](=O)[O-])cc(c23)C(=O)N1CCN1CCCC1 [compound 300289] | ≥ 8.48 | 4.24 (≈ 12.5 µM) | 2.12 (≈ 6.25 µM) | 2.12 (≈ 6.25 µM)
c1ccc2c(c1)Sc1ccccc1N2CC1CN2CCC1CC2 (stereo not shown) [compound 303612] | ≥ 16.13 | 8.06 (≈ 25 µM) | 8.06 (≈ 25 µM) | 4.03 (≈ 12.5 µM)
OC(c1cc(-c2ccc(C(F)(F)F)cc2)nc(C(F)(F)F)c1)C1CCCCN1 (stereo not shown) [compound 305798] | ≥ 10.11 | 1.25 (≈ 3.09 µM) | 2.53 (≈ 6.26 µM) | 2.53 (≈ 6.26 µM)
O=[N+]([O-])c1cnc(Sc2ccncn2)s1 [compound 311727] | ≥ 24.03 | 0.77 (≈ 3.2 µM) | 0.77 (≈ 3.2 µM) | 0.77 (≈ 3.2 µM)
Cc1ccc(NCCN(C)C)c2c(=O)c3cc(O)ccc3sc12.I [compound 317003] | ≥ 5.70 | 2.85 | 2.85 | 1.46
COc1cccc2[nH]c(-c3ccccn3)nc12 [compound 320656] | ≥ 45.06 | 5.63 (≈ 25 µM) | 11.27 (≈ 50 µM) | 1.41 (≈ 6.26 µM)
CS(=O)(=O)O.OC(c1cc(C(F)(F)F)nc2c(Cl)cc(Cl)cc12)C1CCCCN1 (stereo not shown) [compound 322661] | ≥ 11.88 | 2.97 | 1.52 | 2.97
NC1(N2SC(S)=C3CCCC=C32)CCCCC1 [compound 327444] | ≥ 26.84 | 6.71 (≈ 25 µM) | 13.42 (≈ 50 µM) | 3.36 (≈ 12.5 µM)
Cc1cc(C(C#N)c2ccc(Cl)cc2)c(Cl)cc1NC(=O)c1cc(I)cc(I)c1O (stereo not shown) [compound 335306] | ≥ 66.31 | 4.14 (≈ 6.24 µM) | 4.14 (≈ 6.24 µM) | 4.14 (≈ 6.24 µM)
Oc1c(N=Nc2nn[nH]n2)ccc2ccccc12 [compound 338106] | ≥ 3.00 | 1.50 (≈ 6.24 µM) | 1.50 (≈ 6.24 µM) | 0.77 (≈ 3.21 µM)
